Test results: article PMC11739741 (Clinical Pharmacology and Therapeutics, 2024)
Entries after “also recorded” stand apart in the source; their conditions may differ. Like-named read-outs stand apart in the source and are kept apart here. One block for each compound: values may come before it.

How the values were obtained:
[1] = MTX/GLPG3970 DDI study: plasma pharmacokinetics; type: in vivo, human; conditions: for Intra‐participant variability of AUC0–∞ and C max: MTX/GLPG3970 DDI study; for AUC(0-inf): AUC0–∞
[2] = cited from earlier work
[3] = test system: breast cancer resistance protein (BCRP); conditions: at clinically relevant concentrations; ref unpublished data; cited from earlier work
[4] = cited from earlier work; remark: listed apart in the source
[5] = SSZ/GLPG3970 DDI study: plasma pharmacokinetics; type: in vivo, human; conditions: for AUC(0-t) / AUC(0-inf) / Cmax: human, plasma, oral, geometric LS mean (95% CI); for AUC(0-t): AUC0–t; for AUC(0-inf): AUC0–∞; for Cmax: C max
[6] = Day 5 (GLPG3970 + MTX) vs. day 1 (MTX alone)
[7] = GLPG3970 350 mg + MTX 7.5 mg, Day 5 (n = 14)
[8] = MTX 7.5 mg alone, Day 1 (n = 15)
[9] = Day 5 (GLPG3970 + SSZ) vs. day 1 (SSZ alone)
[10] = Day 9 (GLPG3970 2 h after SSZ) vs. day 1 (SSZ alone)
[11] = 1000 mg, SSZ 1,000 mg alone, Day 1 (n = 8)
[12] = GLPG3970 350 mg 2 h after SSZ 1,000 mg, Day 9 (n = 7)
[13] = GLPG3970 350 mg + SSZ 1,000 mg, Day 5 (n = 7)

Compound: COc1cc(-c2cnc3cc(OCCN4CCOCC4)ccn23)cc2c1C(=O)N(CC(F)(F)F)CC2 [GLPG3970]
- Dose proportionality of exposure (AUC) ([2]; across the evaluated dose range): increased more than the dose proportionally
- Effect of food consumption on C max ([2]; preliminary work, ref not given): reduced
- Tolerability ([2]; single and multiple ascending doses, healthy volunteers): well tolerated
- Inhibition of BCRP in vitro [3]: strongly inhibits; also recorded: strong inhibition

Compound: Nc1ccc(S(=O)(=O)Nc2ccccn2)cc1 [SPD, sulfapyridine]
- mean plasma t 1/2 ([4]; fast acetylation phenotype (NAT2)): 10.4 h
- mean plasma t 1/2 ([4]; slow acetylation phenotype (NAT2)): 14.8 h
- AUC0–t, geometric LS mean ratio (90% CI) [5, 9]: 90 (81, 100) %
- AUC0–∞, geometric LS mean ratio (90% CI) [5, 9]: 90 (81, 101) %
- C max, geometric LS mean ratio (90% CI) [5, 9]: 90 (78, 102) %
- AUC0–t, geometric LS mean ratio (90% CI) [5, 10]: 89 (80, 99) %
- AUC0–∞, geometric LS mean ratio (90% CI) [5, 10]: 89 (80, 100) %
- C max, geometric LS mean ratio (90% CI) [5, 10]: 94 (82, 107) %
- Effect of GLPG3970 on SPD exposure ([5]; SSZ with GLPG3970 (simultaneously or 2 h before) vs. SSZ alone): similar; also recorded: no relevant effect
- AUC(0-t) [5, 11]: 119 µg·h/mL
- AUC(0-inf) [5, 11]: 125 µg·h/mL
- Cmax [5, 11]: 5680 ng/mL
- AUC(0-t) [5, 12]: 106 µg·h/mL
- AUC(0-t) [5, 13]: 107 µg·h/mL
- AUC(0-inf) [5, 12]: 112 µg·h/mL
- AUC(0-inf) [5, 13]: 113 µg·h/mL
- Cmax [5, 12]: 5310 ng/mL
- Cmax [5, 13]: 5090 ng/mL

Compound: O=C(O)c1cc(/N=N/c2ccc(S(=O)(=O)Nc3ccccn3)cc2)ccc1O [SSZ, sulfasalazine, reference compound]
- Time at which systemic concentrations are detectable post‐dosing ([4]; oral, literature, ref not given): ~ 1.5 hours
- t max ([4]; post‐dosing, oral SSZ, literature, ref not given): 3 to 12 h
- AUC(0-t) [5, 11]: 59.3 µg·h/mL
- AUC(0-inf) [5, 11]: 59.8 µg·h/mL
- Cmax [5, 11]: 7270 ng/mL
- AUC(0-t) [5, 12]: 109 µg·h/mL
- AUC(0-t) [5, 13]: 108 µg·h/mL
- AUC(0-inf) [5, 12]: 110 µg·h/mL
- AUC(0-inf) [5, 13]: 109 µg·h/mL
- Cmax [5, 12]: 13100 ng/mL
- Cmax [5, 13]: 12000 ng/mL

More lines, main results first:

- AUC0–t, geometric LS mean ratio (90% CI) [1, 6]: 80 (69, 92) %
- C max, geometric LS mean ratio (90% CI) [1, 6]: 77 (72, 82) %
- AUC0–t, geometric LS mean (95% CI) [1, 7]: 392 (332, 463) ng.h/mL
- C max, geometric LS mean (95% CI) [1, 7]: 27.0 (23.9, 30.4) ng/mL
- AUC0–t, geometric LS mean (95% CI) [1, 8]: 490 (418, 576) ng.h/mL
- C max, geometric LS mean (95% CI) [1, 8]: 35.0 (31.1, 39.4) ng/mL
- Reduction in AUC0–t ([1]; MTX + GLPG3970 vs. MTX alone): 20%
- Reduction in C max ([1]; MTX + GLPG3970 vs. MTX alone): 23%
- Reduction in exposure ([1]; MTX + GLPG3970 vs. MTX alone): 20–23%
- Intra‐participant variability of AUC0–∞ and C max [1]: 10–22%
Compound: CN(Cc1nc2c(N)nc(N)nc2[nH]c1=O)c1ccc(C(=O)N[C@@H](CCC(=O)O)C(=O)O)cc1 [7‐OH‐MTX, 7‐hydroxy‐methotrexate]

- AUC0–t, geometric LS mean (95% CI) [1, 7]: 583 (523, 649) ng.h/mL
- Time after which plasma concentrations fell below the LLOQ ([1]; MTX 7.5 mg, LLOQ 5 ng/mL): 12 h
- Intra‐participant variability of AUC0–∞ and C max [1]: 10–22%
- AUC(0-t) ([1]; human, plasma, oral, 7.5 mg, AUC0–t, geometric LS mean (95% CI), MTX 7.5 mg alone, Day 1 (n = 15)): 0.627 µg·h/mL
- AUC(0-inf) ([1]; human, plasma, oral, 7.5 mg, geometric LS mean (95% CI), MTX 7.5 mg alone, Day 1 (n = 13)): 0.677 µg·h/mL
- AUC(0-inf) ([1]; human, plasma, oral, geometric LS mean (95% CI), GLPG3970 350 mg + MTX 7.5 mg, Day 5 (n = 12)): 0.614 µg·h/mL
- Cmax ([1]; human, plasma, oral, C max, geometric LS mean (95% CI), GLPG3970 350 mg + MTX 7.5 mg, Day 5 (n = 14)): 193 ng/mL
Compound: CN(Cc1cnc2nc(N)nc(N)c2n1)c1ccc(C(=O)N[C@@H](CCC(=O)O)C(=O)O)cc1 [MTX, methotrexate, reference compound]
- fraction of dose metabolized in the liver [4]: Approximately 10%
- mean t 1/2 [4]: 3 to 10 h
- bioavailability ([4]; oral dosing): ~ 60%
- excreted unchanged in urine ([4]; within 24 hours): 80–90%
